Reference: US5792656A (priority 1995, dated 1998)
Several values for one entry are separate records, joined by “and”; a condition that tells them apart may be missing. Equal entries are not always repeated. Entries after “also recorded” stand apart in the source; their conditions may differ. Where two headings read alike, the source gives them in different places.

How the values were obtained:
[1] = biological target: T1, GLUT-1 low Km glucose transporter of untransfected parental AtT-20ins cells (Mus musculus, UniProt P17809); assay: Glucose transport (3-O-methyl glucose uptake) in untransfected parental AtT-20ins cells; format: cell-based; settings: untransfected parental AtT-20ins line
T1 sequence (P17809 1-492): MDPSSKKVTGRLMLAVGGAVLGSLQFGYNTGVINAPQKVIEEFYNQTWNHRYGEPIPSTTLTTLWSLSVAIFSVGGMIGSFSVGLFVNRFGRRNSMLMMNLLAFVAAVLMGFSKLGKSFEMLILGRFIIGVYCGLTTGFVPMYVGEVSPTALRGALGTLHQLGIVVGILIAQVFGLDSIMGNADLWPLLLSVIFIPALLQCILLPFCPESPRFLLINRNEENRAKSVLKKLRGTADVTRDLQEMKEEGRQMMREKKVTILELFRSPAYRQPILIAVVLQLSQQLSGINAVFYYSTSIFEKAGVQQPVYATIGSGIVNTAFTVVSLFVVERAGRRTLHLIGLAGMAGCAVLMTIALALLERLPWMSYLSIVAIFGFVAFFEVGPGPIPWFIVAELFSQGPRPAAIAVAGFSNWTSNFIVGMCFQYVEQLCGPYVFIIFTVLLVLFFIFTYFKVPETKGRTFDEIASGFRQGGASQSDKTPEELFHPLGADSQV

[2] = system: parental AtT-20ins cells; assay: Insulin secretion, static 3 hour incubation, parental cells; format: cell-based; settings: 0-20 mM glucose, 3 hours static incubation
Procedure: (§1) Parental or GLUT-2 transfected lines CGT-5 and CGT-6 were removed from growth plates by light trypsinization and replanted in 6 well dishes (Costar) at a density of 5×10^5 cells per well. The cells were then grown for three days in culture media containing 1 mM (see above). […] Cells were incubated with secretagogues for 3 hours, after which media was collected for insulin radioimmunoassay.

[3] = biological target: T2, rat islet GLUT-2 glucose transporter expressed in AtT-20ins cells (lines CGT-5, CGT-6) (Rattus norvegicus, UniProt P12336)
T2 sequence (P12336 1-522): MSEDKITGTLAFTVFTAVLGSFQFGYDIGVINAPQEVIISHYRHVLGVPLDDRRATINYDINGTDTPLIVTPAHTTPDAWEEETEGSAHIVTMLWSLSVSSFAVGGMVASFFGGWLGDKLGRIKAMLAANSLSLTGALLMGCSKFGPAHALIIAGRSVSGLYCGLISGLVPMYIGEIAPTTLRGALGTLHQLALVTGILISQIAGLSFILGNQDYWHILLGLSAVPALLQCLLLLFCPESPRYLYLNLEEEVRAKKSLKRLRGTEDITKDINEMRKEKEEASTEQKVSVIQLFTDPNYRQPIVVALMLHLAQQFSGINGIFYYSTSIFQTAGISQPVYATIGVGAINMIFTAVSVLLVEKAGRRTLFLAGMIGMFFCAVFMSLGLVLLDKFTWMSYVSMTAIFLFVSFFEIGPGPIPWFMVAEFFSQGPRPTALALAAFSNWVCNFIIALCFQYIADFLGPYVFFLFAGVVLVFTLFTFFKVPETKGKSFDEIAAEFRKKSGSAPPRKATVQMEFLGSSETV

[4] = biological target: T3, high Km glucose transport activity (GLUT-2) of isolated, dispersed islets of Langerhans (Rattus norvegicus, UniProt P12336); settings: cited from earlier work
T3 construct: host or cells: isolated, dispersed islets of Langerhans (Johnson et al., 1990a)
T3 sequence (P12336 1-522): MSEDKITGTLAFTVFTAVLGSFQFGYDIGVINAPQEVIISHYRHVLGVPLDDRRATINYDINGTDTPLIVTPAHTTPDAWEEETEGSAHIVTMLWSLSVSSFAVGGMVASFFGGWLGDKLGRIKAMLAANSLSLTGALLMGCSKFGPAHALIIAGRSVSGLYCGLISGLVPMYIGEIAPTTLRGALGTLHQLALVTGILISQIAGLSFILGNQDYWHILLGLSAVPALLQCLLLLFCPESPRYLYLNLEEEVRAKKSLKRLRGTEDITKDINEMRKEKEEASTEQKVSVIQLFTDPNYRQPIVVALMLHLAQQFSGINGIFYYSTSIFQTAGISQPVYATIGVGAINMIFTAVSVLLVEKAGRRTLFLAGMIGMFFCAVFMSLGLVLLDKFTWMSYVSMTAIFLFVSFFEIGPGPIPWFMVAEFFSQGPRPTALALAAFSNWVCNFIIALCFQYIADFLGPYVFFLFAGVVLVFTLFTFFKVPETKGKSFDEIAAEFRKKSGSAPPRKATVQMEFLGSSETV

[5] = system: hexokinase (low Km Hexokinases I, II, and III); settings: cited from earlier work
[6] = biological target: T4, glucokinase (Hexokinase IV) (Homo sapiens, UniProt P35557); settings: read-out: Km for glucose; cited from earlier work
T4 sequence (P35557 1-465): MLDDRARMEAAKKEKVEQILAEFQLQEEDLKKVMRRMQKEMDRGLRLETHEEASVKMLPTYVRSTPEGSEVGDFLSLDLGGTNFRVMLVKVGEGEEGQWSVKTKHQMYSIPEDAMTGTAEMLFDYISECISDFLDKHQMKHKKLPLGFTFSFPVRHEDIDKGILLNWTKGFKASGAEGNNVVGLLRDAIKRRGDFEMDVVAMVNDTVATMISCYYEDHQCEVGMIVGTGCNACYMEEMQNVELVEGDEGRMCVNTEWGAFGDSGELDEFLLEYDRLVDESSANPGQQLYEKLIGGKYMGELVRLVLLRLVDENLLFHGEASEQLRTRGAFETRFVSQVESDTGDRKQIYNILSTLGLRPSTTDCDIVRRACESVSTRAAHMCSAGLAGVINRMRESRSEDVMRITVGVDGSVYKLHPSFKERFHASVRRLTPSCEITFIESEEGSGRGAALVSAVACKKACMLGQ

[7] = biological target: T5, glucokinase, islet isoform (Rattus norvegicus, UniProt P17712); settings: read-out: Km for glucose; cited from earlier work
T5 sequence (P17712 1-465): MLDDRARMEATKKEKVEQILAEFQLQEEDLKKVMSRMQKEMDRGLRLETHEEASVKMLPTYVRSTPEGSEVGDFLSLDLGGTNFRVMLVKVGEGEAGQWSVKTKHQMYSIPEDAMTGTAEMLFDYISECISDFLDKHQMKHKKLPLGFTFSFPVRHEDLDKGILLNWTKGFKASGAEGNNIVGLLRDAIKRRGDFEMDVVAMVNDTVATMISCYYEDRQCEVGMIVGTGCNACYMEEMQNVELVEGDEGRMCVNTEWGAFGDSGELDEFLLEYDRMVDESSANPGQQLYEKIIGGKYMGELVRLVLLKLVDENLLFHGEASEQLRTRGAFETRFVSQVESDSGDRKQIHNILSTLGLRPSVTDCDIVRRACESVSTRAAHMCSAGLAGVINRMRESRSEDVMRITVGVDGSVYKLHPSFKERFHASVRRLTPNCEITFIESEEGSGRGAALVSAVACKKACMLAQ

[8] = biological target: T6, glucokinase, liver isoform (Rattus norvegicus, UniProt P17712); settings: read-out: Km for glucose; cited from earlier work
T6 sequence (P17712 1-465 isoform P17712-3): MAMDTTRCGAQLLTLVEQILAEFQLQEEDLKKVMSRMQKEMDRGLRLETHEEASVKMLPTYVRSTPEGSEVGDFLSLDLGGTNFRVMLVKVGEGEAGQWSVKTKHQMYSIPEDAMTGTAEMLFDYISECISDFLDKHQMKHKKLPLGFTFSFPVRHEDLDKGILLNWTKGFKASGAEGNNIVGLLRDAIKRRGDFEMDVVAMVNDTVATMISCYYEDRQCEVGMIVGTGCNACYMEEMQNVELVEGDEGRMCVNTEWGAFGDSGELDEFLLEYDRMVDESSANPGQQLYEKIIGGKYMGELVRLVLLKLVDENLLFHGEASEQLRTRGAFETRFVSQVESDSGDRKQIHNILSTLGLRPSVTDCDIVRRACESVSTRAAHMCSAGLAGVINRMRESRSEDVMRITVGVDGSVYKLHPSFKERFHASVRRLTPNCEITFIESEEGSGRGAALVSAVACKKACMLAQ

[9] = system: GLUT-2 transfected AtT-20ins cells (line CGT-6); assay: cells; settings: Mus musculus, 3 h, read-out: maximal stimulation of insulin release relative to 0 mM glucose
Procedure: as §1

[10] = system: CGT-6 (GLUT-2 expressing AtT-20ins) cells; assay: cells
Procedure: Insulin secretion from CGT-6 (GLUT-2,expressing AtT-20ins) cells was evaluated using a column perfusion technique (Knudsen et al., 1983). Cells were grown in liquid culture on microcarrier beads (InvitroGen). Approximately 50×10^6 cells were harvested by gentle centrifugation (500 rpm in a Sorvall RT6000B desk top centrifuge), resuspended in 4ml Krebs-Ringer salt (KRS) solution, pH 7.4, and loaded onto a Pharmacia P10/10 column. A cell count was obtained immediately before loading the column in the following manner. An aliquot of cells was taken, the beads digested with 1.2 U/ml Dispase (Boehringer Mannheim), the cell clumps were dispersed by extrusion through a 25 gauge needle and the cells were counted directly.
After the beads settled in the column, the top plunger of the column was gently inserted and the whole apparatus was submerged in a 37° C. water bath. The cells were then perifused as described below.

[11] = system: RIN 1046-38 cells; settings: RIN 1046-38 cells (Clark, et al., 1990); cited from earlier work
[12] = substrate: OC[C@H]1OC(O)[C@H](O)[C@@H](O)[C@@H]1O; assay: cells, lysate or membranes; settings: 3-O-methyl glucose uptake, 37.0 °C
[13] = lines CGT-5, CGT-6 stated together, 3-O-methyl glucose uptake

With OC[C@H]1OC(O)[C@H](O)[C@@H](O)[C@@H]1O (some centres unmarked) [glucose] the Vmax [1] was 0.5 mmoles/min/liter cell space, the “effect of glucose on insulin release” value [2] was “no significant effect” and the Vmax ([3]; line CGT-5, Lineweaver-Burke analysis) was 25 mmoles/min/liter cell space. For the same molecule, the Vmax ([3]; line CGT-6, Lineweaver-Burke analysis) was 17 mmoles/min/liter cell space, the Vmax [3, 13] was 19 mmoles/min/liter cell space and the “estimated Km for glucose” value [3, 13] was 18 mM. The Vmax ([4]; dispersed islets (Johnson, et al., 1990a)) was 24 mmoles/min/liter cell space, the Km ([4]; read-out: Km for glucose, dispersed islets (Johnson, et al., 1990a)) was 18 mM and the Km ([5]; read-out: Km for glucose, Hexokinases I, II, and III) was roughly 0.05 mM. The Km [6] was ~8 mM and 8 to 10 mM, the Km [7] was 8 to 10 mM and ~10 mM and the Km [8] was 8 to 10 mM. The maximal fold induction [9] was roughly 2.5, the fold induction at 5000 µM ([10]; 5 min, read-out: insulin secretion second plateau above pre-glucose level) was 3 and the fold induction at 5000 µM ([10]; read-out: increase in insulin release, first phase, over baseline without glucose) was 10. For the same molecule, the “glucose concentration at which stimulation of insulin release is maximal” value [11] was 0.5 mM.

For O=P(O)(O)OC[C@H]1OC(O)[C@H](O)[C@@H](O)[C@@H]1O (some centres unmarked) [glucose-6-phosphate, reference compound], the “inhibition of hexokinase by glucose-6-phosphate” value ([5]; 10 mM glucose-6-phosphate) is listed as “potently inhibits; also recorded: potent inhibitor”.

B1: GLUT-1 low Km glucose transporter of untransfected parental AtT-20ins cells (Mus musculus) (protein)
chain: MDPSSKKVTGRLMLAVGGAVLGSLQFGYNTGVINAPQKVIEEFYNQTWNHRYGEPIPSTTLTTLWSLSVAIFSVGGMIGSFSVGLFVNRFGRRNSMLMMNLLAFVAAVLMGFSKLGKSFEMLILGRFIIGVYCGLTTGFVPMYVGEVSPTALRGALGTLHQLGIVVGILIAQVFGLDSIMGNADLWPLLLSVIFIPALLQCILLPFCPESPRFLLINRNEENRAKSVLKKLRGTADVTRDLQEMKEEGRQMMREKKVTILELFRSPAYRQPILIAVVLQLSQQLSGINAVFYYSTSIFEKAGVQQPVYATIGSGIVNTAFTVVSLFVVERAGRRTLHLIGLAGMAGCAVLMTIALALLERLPWMSYLSIVAIFGFVAFFEVGPGPIPWFIVAELFSQGPRPAAIAVAGFSNWTSNFIVGMCFQYVEQLCGPYVFIIFTVLLVLFFIFTYFKVPETKGRTFDEIASGFRQGGASQSDKTPEELFHPLGADSQV
B1 showed a Km ([12]; other: untransfected parental AtT-20ins line) of 2 mM.

B2: rat islet GLUT-2 glucose transporter expressed in AtT-20ins cells (lines CGT-5, CGT-6) (Rattus norvegicus) (protein)
chain: MSEDKITGTLAFTVFTAVLGSFQFGYDIGVINAPQEVIISHYRHVLGVPLDDRRATINYDINGTDTPLIVTPAHTTPDAWEEETEGSAHIVTMLWSLSVSSFAVGGMVASFFGGWLGDKLGRIKAMLAANSLSLTGALLMGCSKFGPAHALIIAGRSVSGLYCGLISGLVPMYIGEIAPTTLRGALGTLHQLALVTGILISQIAGLSFILGNQDYWHILLGLSAVPALLQCLLLLFCPESPRYLYLNLEEEVRAKKSLKRLRGTEDITKDINEMRKEKEEASTEQKVSVIQLFTDPNYRQPIVVALMLHLAQQFSGINGIFYYSTSIFQTAGISQPVYATIGVGAINMIFTAVSVLLVEKAGRRTLFLAGMIGMFFCAVFMSLGLVLLDKFTWMSYVSMTAIFLFVSFFEIGPGPIPWFMVAEFFSQGPRPTALALAAFSNWVCNFIIALCFQYIADFLGPYVFFLFAGVVLVFTLFTFFKVPETKGKSFDEIAAEFRKKSGSAPPRKATVQMEFLGSSETV
In the case of B2, the Km ([12]; other: line CGT-5, Lineweaver-Burke analysis) is reported as 16 mM and the Km ([12]; other: line CGT-6, Lineweaver-Burke analysis) is reported as 17 mM.
